Assay results as given in patent US20220117938A1, “COMBINATON THERAPY WITH A DON PRODRUG AND AN IMMUNE CHECKPOINT INHIBITOR” (DRACEN PHARMACEUTICALS, INC., priority 2019, published 2022).

Test system: MC-38 tumors
Test: Anti-tumor efficacy of Compound 1 in the subcutaneous MC-38 model: schedule comparison (Example 3)
Type: in vivo, Mus musculus
Protocol: Female C57BL/6 mice were inoculated subcutaneously at right flank with MC-38 cells for tumor development. Six days after tumor inoculation, 64 mice with tumor size ranging from 50-100 mm^3 (average tumor size 71 mm^3) were selected and assigned into 8 groups using stratified randomization with 8 mice per group based upon their tumor volumes. The treatments were started from the day of randomization (defined as D0), Group 1 was treated with Vehicle (Tween 80:Ethanol:Saline—5:5:90 v/v/v), S.C. QD*20 days, Group 2 was treated with Compound 1 at 1 mpk S.C. QD*28 days, Group 3 was treated with Compound 1 at 0.5 mpk S.C. QD*28 days, Group 4 was treated with Compound 1 at 1.4 mpk S.C. 5-days ON 2-days OFF×4 cycles, Group 5 was treated with Compound 1 at 0.7 mpk S.C. 5-days ON 2-days OFF×4 cycles, Group 6 was treated with Compound 1 at 3 mpk qd×5, followed by 1 mpk qd×23, S.C. QD, Group 7 was treated with Compound 1 at 1.5 mpk qd×5, followed by 0.5 mpk qd×23, S.C. QD and Group 8 was treated with Compound 1 at 1.4 mpk 10-days ON 4-days OFF×2 cycles, S.C.
Species: Mus musculus; Strain: C57BL/6; Age: 6-8 weeks; Sex: female; Body weight (at treatment start): 16-20 g.
The MC-38 tumor cells were maintained in vitro as a monolayer culture in DMEM medium supplemented with 10% heat inactivated fetal bovine serum and 100 μg/mL penicillin streptomycin at 37° C. in an atmosphere of 5% CO2 in air. The tumor cells were routinely subcultured twice weekly by trypsin-EDTA treatment. The cells growing to a confluency around 70%-80% were harvested and counted for tumor inoculation. The cultured MC-38 were harvested, re-suspended in base medium at a density of 1×10^7 cells/mL with viability>90%. Each mouse was inoculated subcutaneously at the right flank with 1×10^6 cells in 0.1 ml base medium for tumor development.
The treatments were started on day 6 after tumor inoculation when the tumor size reached 50-100 mm^3 (average tumor size 71 mm^3). Each group consisted of 8 tumor-bearing mice. The testing article was administrated to the mice at a dosing volume of 10 mL/Kg according to the predetermined regimen as shown in Table 3-1.
Tumor sizes were measured three times a week in two dimensions using a caliper, and the volume expressed in mm^3 using the formula: V=0.5 a×b^2 where a and b are the long and short diameters of the tumor, respectively. The tumor sizes were then used for the calculations of both tumor growth inhibition (TGI) and T/C values.
TGI is calculated for each group using the formula: […]
TVTreatment_DayN is the average tumor volume of a treatment group on a given day, TVTreatment_Day0 is the average tumor volume of the treatment group on the first day of treatment, TVVehicle_DayN is the average tumor volume of the vehicle control group on a given day, and TVVehicle_Day0 is the average tumor volume of the vehicle group on the first day of treatment.
The T/C value (in percent) is an indication of antitumor effectiveness, T/C (%)=RTVTreatment/RTVControl×100% (RTVTreatment: the mean RTV of the treatment group; RTVControl: the mean RTV of the vehicle treated group). RTV (relative tumor volume)=TVDayN/TVDay0. TVDayN and TVDay0 is the tumor volume on day N and Day 0 respectively. T/C (%)≤42% is considered as significant antitumor activity and <10% is considered as highly significant antitumor activity by the National Cancer Institute criteria.
Relative change of body weight (RCBW) of each mouse was calculated according to the following formula: […]
Animal survival curve: When an individual animal reached to the termination endpoint (TV>2000 mm^3), the mouse was euthanized. The time from treatment initiation to the termination was deemed as its survival time. Survival curve was plotted by Kaplan-Meier method. Median survival time (MST) was calculated for each group. Increase of life span (ILS) was calculated according to the following formula: […]
ILS (%)>25% is considered as a biologically significant survival benefit. […]

For `CC(=O)N[C@@H](Cc1c[nH]c2ccccc12)C(=O)N[C@@H](CCC(=O)C=[N+]=[N-])C(=O)OC(C)C` [Compound 1, Isopropyl (S)-2-((S)-2-acetamido-3-(1H-indol-3-yl)propanamido)-6-diazo-5-oxohexanoate], the “Tumor volume (Mean ± SEM)” value (Day 20, Group 3: 0.5 mg/kg qdx28, sc) was 7 ± 1 mm^3, the “Tumor volume (Mean ± SEM)” value (Day 20, Group 4: 1.4 mg/kg 5-days ON 2-days OFF x 4 cycles, sc) was 0 ± 0 mm^3 and the “Tumor volume (Mean ± SEM)” value (Day 20, Group 5: 0.7 mg/kg 5-days ON 2-days OFF x 4 cycles, sc) was 2 ± 1 mm^3. For the same compound, the “Tumor volume (Mean ± SEM)” value (Day 20, Group 6: 3 mpk qdx5 followed by 1 mpk qdx23, sc) was 5 ± 2 mm^3, the “Tumor volume (Mean ± SEM)” value (Day 20, Group 7: 1.5 mpk qdx5 followed by 0.5 mpk qdx23, sc) was 5 ± 1 mm^3 and the “Tumor volume (Mean ± SEM)” value (Day 20, Group 8: 1.4 mg/kg 10-days ON 4-days OFF x 2 cycles, sc) was 6 ± 2 mm^3. The “Tumor volume (Mean ± SEM)” value (Day 22, Group 2: 1 mg/kg qdx28, sc) was 2 ± 1 mm^3, the “Tumor volume (Mean ± SEM)” value (Day 22, Group 3: 0.5 mg/kg qdx28, sc) was 6 ± 2 mm^3 and the “Tumor volume (Mean ± SEM)” value (Day 22, Group 4: 1.4 mg/kg 5-days ON 2-days OFF x 4 cycles, sc) was 0 ± 0 mm^3. The “Tumor volume (Mean ± SEM)” value (Day 22, Group 5: 0.7 mg/kg 5-days ON 2-days OFF x 4 cycles, sc) was 2 ± 1 mm^3, the “Tumor volume (Mean ± SEM)” value (Day 22, Group 6: 3 mpk qdx5 followed by 1 mpk qdx23, sc) was 3 ± 1 mm^3 and the “Tumor volume (Mean ± SEM)” value (Day 22, Group 7: 1.5 mpk qdx5 followed by 0.5 mpk qdx23, sc) was 6 ± 1 mm^3. The “Tumor volume (Mean ± SEM)” value (Day 22, Group 8: 1.4 mg/kg 10-days ON 4-days OFF x 2 cycles, sc) was 5 ± 2 mm^3, the “Tumor volume (Mean ± SEM)” value (Day 25, Group 2: 1 mg/kg qdx28, sc) was 5 ± 1 mm^3 and the “Tumor volume (Mean ± SEM)” value (Day 25, Group 3: 0.5 mg/kg qdx28, sc) was 6 ± 1 mm^3. For the same compound, the “Tumor volume (Mean ± SEM)” value (Day 25, Group 4: 1.4 mg/kg 5-days ON 2-days OFF x 4 cycles, sc) was 0 ± 0 mm^3, the “Tumor volume (Mean ± SEM)” value (Day 25, Group 5: 0.7 mg/kg 5-days ON 2-days OFF x 4 cycles, sc) was 2 ± 1 mm^3 and the “Tumor volume (Mean ± SEM)” value (Day 25, Group 6: 3 mpk qdx5 followed by 1 mpk qdx23, sc) was 2 ± 1 mm^3. The “Tumor volume (Mean ± SEM)” value (Day 25, Group 7: 1.5 mpk qdx5 followed by 0.5 mpk qdx23, sc) was 4 ± 1 mm^3, the “Tumor volume (Mean ± SEM)” value (Day 25, Group 8: 1.4 mg/kg 10-days ON 4-days OFF x 2 cycles, sc) was 5 ± 2 mm^3 and the “Tumor volume (Mean ± SEM)” value (Day 27, Group 2: 1 mg/kg qdx28, sc) was 6 ± 2 mm^3. The “Tumor volume (Mean ± SEM)” value (Day 27, Group 3: 0.5 mg/kg qdx28, sc) was 7 ± 1 mm^3, the “Tumor volume (Mean ± SEM)” value (Day 27, Group 4: 1.4 mg/kg 5-days ON 2-days OFF x 4 cycles, sc) was 0 ± 0 mm^3 and the “Tumor volume (Mean ± SEM)” value (Day 27, Group 5: 0.7 mg/kg 5-days ON 2-days OFF x 4 cycles, sc) was 1 ± 1 mm^3. The “Tumor volume (Mean ± SEM)” value (Day 27, Group 6: 3 mpk qdx5 followed by 1 mpk qdx23, sc) was 2 ± 1 mm^3, the “Tumor volume (Mean ± SEM)” value (Day 27, Group 7: 1.5 mpk qdx5 followed by 0.5 mpk qdx23, sc) was 4 ± 1 mm^3 and the “Tumor volume (Mean ± SEM)” value (Day 27, Group 8: 1.4 mg/kg 10-days ON 4-days OFF x 2 cycles, sc) was 6 ± 2 mm^3. For the same compound, the “Tumor volume (Mean ± SEM)” value (Day 29, Group 2: 1 mg/kg qdx28, sc) was 17 ± 11 mm^3, the “Tumor volume (Mean ± SEM)” value (Day 29, Group 3: 0.5 mg/kg qdx28, sc) was 13 ± 3 mm^3 and the “Tumor volume (Mean ± SEM)” value (Day 29, Group 4: 1.4 mg/kg 5-days ON 2-days OFF x 4 cycles, sc) was 1 ± 1 mm^3. The “Tumor volume (Mean ± SEM)” value (Day 29, Group 5: 0.7 mg/kg 5-days ON 2-days OFF x 4 cycles, sc) was 2 ± 1 mm^3, the “Tumor volume (Mean ± SEM)” value (Day 29, Group 6: 3 mpk qdx5 followed by 1 mpk qdx23, sc) was 5 ± 3 mm^3 and the “Tumor volume (Mean ± SEM)” value (Day 29, Group 7: 1.5 mpk qdx5 followed by 0.5 mpk qdx23, sc) was 10 ± 3 mm^3. The “Tumor volume (Mean ± SEM)” value (Day 29, Group 8: 1.4 mg/kg 10-days ON 4-days OFF x 2 cycles, sc) was 17 ± 5 mm^3, the “Tumor volume (Mean ± SEM)” value (Day 32, Group 2: 1 mg/kg qdx28, sc) was 92 ± 47 mm^3 and the “Tumor volume (Mean ± SEM)” value (Day 32, Group 3: 0.5 mg/kg qdx28, sc) was 45 ± 9 mm^3. For the same compound, the “Tumor volume (Mean ± SEM)” value (Day 32, Group 4: 1.4 mg/kg 5-days ON 2-days OFF x 4 cycles, sc) was 13 ± 7 mm^3, the “Tumor volume (Mean ± SEM)” value (Day 32, Group 5: 0.7 mg/kg 5-days ON 2-days OFF x 4 cycles, sc) was 20 ± 12 mm^3 and the “Tumor volume (Mean ± SEM)” value (Day 32, Group 6: 3 mpk qdx5 followed by 1 mpk qdx23, sc) was 51 ± 35 mm^3. For the same compound, the “Tumor volume (Mean ± SEM)” value (Day 32, Group 7: 1.5 mpk qdx5 followed by 0.5 mpk qdx23, sc) was 44 ± 12 mm^3, the “Tumor volume (Mean ± SEM)” value (Day 32, Group 8: 1.4 mg/kg 10-days ON 4-days OFF x 2 cycles, sc) was 73 ± 19 mm^3 and the “Tumor volume (Mean ± SEM)” value (Day 34, Group 2: 1 mg/kg qdx28, sc) was 190 ± 81 mm^3. The “Tumor volume (Mean ± SEM)” value (Day 34, Group 3: 0.5 mg/kg qdx28, sc) was 121 ± 20 mm^3, the “Tumor volume (Mean ± SEM)” value (Day 34, Group 4: 1.4 mg/kg 5-days ON 2-days OFF x 4 cycles, sc) was 37 ± 21 mm^3 and the “Tumor volume (Mean ± SEM)” value (Day 34, Group 5: 0.7 mg/kg 5-days ON 2-days OFF x 4 cycles, sc) was 32 ± 16 mm^3. For the same compound, the “Tumor volume (Mean ± SEM)” value (Day 34, Group 6: 3 mpk qdx5 followed by 1 mpk qdx23, sc) was 114 ± 79 mm^3, the “Tumor volume (Mean ± SEM)” value (Day 34, Group 7: 1.5 mpk qdx5 followed by 0.5 mpk qdx23, sc) was 112 ± 24 mm^3 and the “Tumor volume (Mean ± SEM)” value (Day 34, Group 8: 1.4 mg/kg 10-days ON 4-days OFF x 2 cycles, sc) was 168 ± 43 mm^3. The “Tumor volume (Mean ± SEM)” value (Day 36, Group 2: 1 mg/kg qdx28, sc) was 454 ± 212 mm^3, the “Tumor volume (Mean ± SEM)” value (Day 36, Group 3: 0.5 mg/kg qdx28, sc) was 285 ± 42 mm^3 and the “Tumor volume (Mean ± SEM)” value (Day 36, Group 4: 1.4 mg/kg 5-days ON 2-days OFF x 4 cycles, sc) was 100 ± 47 mm^3. For the same compound, the “Tumor volume (Mean ± SEM)” value (Day 36, Group 5: 0.7 mg/kg 5-days ON 2-days OFF x 4 cycles, sc) was 125 ± 63 mm^3, the “Tumor volume (Mean ± SEM)” value (Day 36, Group 6: 3 mpk qdx5 followed by 1 mpk qdx23, sc) was 288 ± 174 mm^3 and the “Tumor volume (Mean ± SEM)” value (Day 36, Group 7: 1.5 mpk qdx5 followed by 0.5 mpk qdx23, sc) was 364 ± 69 mm^3. For the same compound, the “Tumor volume (Mean ± SEM)” value (Day 36, Group 8: 1.4 mg/kg 10-days ON 4-days OFF x 2 cycles, sc) was 479 ± 121 mm^3, the “Tumor volume (Mean ± SEM)” value (Day 39, Group 2: 1 mg/kg qdx28, sc) was 1109 ± 398 mm^3 and the “Tumor volume (Mean ± SEM)” value (Day 39, Group 3: 0.5 mg/kg qdx28, sc) was 592 ± 61 mm^3. For the same compound, the “Tumor volume (Mean ± SEM)” value (Day 39, Group 4: 1.4 mg/kg 5-days ON 2-days OFF x 4 cycles, sc) was 238 ± 72 mm^3, the “Tumor volume (Mean ± SEM)” value (Day 39, Group 5: 0.7 mg/kg 5-days ON 2-days OFF x 4 cycles, sc) was 242 ± 114 mm^3 and the “Tumor volume (Mean ± SEM)” value (Day 39, Group 6: 3 mpk qdx5 followed by 1 mpk qdx23, sc) was 723 ± 345 mm^3. For the same compound, the “Tumor volume (Mean ± SEM)” value (Day 39, Group 7: 1.5 mpk qdx5 followed by 0.5 mpk qdx23, sc) was 904 ± 174 mm^3, the “Tumor volume (Mean ± SEM)” value (Day 39, Group 8: 1.4 mg/kg 10-days ON 4-days OFF x 2 cycles, sc) was 945 ± 260 mm^3 and the “Tumor volume (Mean ± SEM)” value (Day 41, Group 3: 0.5 mg/kg qdx28, sc) was 1718 ± 136 mm^3. For the same compound, the “Tumor volume (Mean ± SEM)” value (Day 41, Group 4: 1.4 mg/kg 5-days ON 2-days OFF x 4 cycles, sc) was 420 ± 129 mm^3 and the “Mice completely tumor free on D67 ("cured")” value (Group 5: 0.7 mpk S.C. 5-days ON 2-days OFF×4 cycles, 8 mice per group) was “Four”.
